Source: paper PMC11842588, “A first-in-class selective inhibitor of ERK1/2 and ERK5 overcomes drug resistance with a single-molecule strategy” (Signal Transduction and Targeted Therapy, 2025)

Experiments:
Assay in all cases: Kinase profiling
Format in all cases: biochemical
Arg(h) = target: T1, Arg(h) (Homo sapiens, UniProt P42684)
T1 construct: purchased Eurofins Cerep SA (KinaseProfiler)
Experimental: (§1) 380 kinases inhibitory activities of SKLB-D18 were conducted by Eurofins Cerep SA. The result was illustrated by kinase tree (http://www.kinhub.org/kinmap/).

Blk(h) = target: T2, Blk(h) (Homo sapiens, UniProt P51451)
T2 construct: purchased Eurofins Cerep SA (KinaseProfiler)
Experimental: as §1

BrSK1(h) = target: T3, BrSK1(h) (Homo sapiens, UniProt Q8TDC3)
T3 construct: purchased Eurofins Cerep SA (KinaseProfiler)
Experimental: as §1

CK2(h) = target: T4, CK2(h) (Homo sapiens, UniProt P68400)
T4 construct: purchased Eurofins Cerep SA (KinaseProfiler)
Experimental: as §1

CLK3(h) = target: T5, CLK3(h) (Homo sapiens, UniProt P49761)
T5 construct: purchased Eurofins Cerep SA (KinaseProfiler)
Experimental: as §1

CLK4(h) = target: T6, CLK4(h) (Homo sapiens, UniProt Q9HAZ1)
T6 construct: purchased Eurofins Cerep SA (KinaseProfiler)
Experimental: as §1

CaMKI(h) = target: T7, CaMKI(h) (Homo sapiens, UniProt Q14012)
T7 construct: purchased Eurofins Cerep SA (KinaseProfiler)
Experimental: as §1

DCAMKL3(h) = target: T8, DCAMKL3(h) (Homo sapiens, UniProt Q9C098)
T8 construct: purchased Eurofins Cerep SA (KinaseProfiler)
Experimental: as §1

DRAK1(h) = target: T9, DRAK1(h) (Homo sapiens, UniProt Q9UEE5)
T9 construct: purchased Eurofins Cerep SA (KinaseProfiler)
Experimental: as §1

EphA7(h) = target: T10, EphA7(h) (Homo sapiens, UniProt Q15375)
T10 construct: purchased Eurofins Cerep SA (KinaseProfiler)
Experimental: as §1

FGFR3(h) = target: T11, FGFR3(h) (Homo sapiens, UniProt P22607)
T11 construct: purchased Eurofins Cerep SA (KinaseProfiler)
Experimental: as §1

GSK3α(h) = target: T12, GSK3α(h) (Homo sapiens, UniProt P49840)
T12 construct: purchased Eurofins Cerep SA (KinaseProfiler)
Experimental: as §1

HIPK1(h) = target: T13, HIPK1(h) (Homo sapiens, UniProt Q86Z02)
T13 construct: purchased Eurofins Cerep SA (KinaseProfiler)
Experimental: as §1

Haspin(h) = target: T14, Haspin(h) (Homo sapiens, UniProt Q8TF76)
T14 construct: purchased Eurofins Cerep SA (KinaseProfiler)
Experimental: as §1

IKKβ(h) = target: T15, IKKβ(h) (Homo sapiens, UniProt O14920)
T15 construct: purchased Eurofins Cerep SA (KinaseProfiler)
Experimental: as §1

IRAK1(h) = target: T16, IRAK1(h) (Homo sapiens, UniProt P51617)
T16 construct: purchased Eurofins Cerep SA (KinaseProfiler)
Experimental: as §1

KDR(h) = target: T17, KDR(h) (Homo sapiens, UniProt P35968)
T17 construct: purchased Eurofins Cerep SA (KinaseProfiler)
Experimental: as §1

LOK(h) = target: T18, LOK(h) (Homo sapiens, UniProt O94804)
T18 construct: purchased Eurofins Cerep SA (KinaseProfiler)
Experimental: as §1

Lck(h) = target: T19, Lck(h) (Homo sapiens, UniProt P06239)
T19 construct: purchased Eurofins Cerep SA (KinaseProfiler)
Experimental: as §1

MAPK1(h) = target: T20, MAPK1(h) (Homo sapiens, UniProt P28482)
T20 construct: purchased Eurofins Cerep SA (KinaseProfiler)
Experimental: as §1

MARK1(h) = target: T21, MARK1(h) (Homo sapiens, UniProt Q9P0L2)
T21 construct: purchased Eurofins Cerep SA (KinaseProfiler)
Experimental: as §1

MEK1(h) = target: T22, MEK1(h) (Homo sapiens, UniProt Q02750)
T22 construct: purchased Eurofins Cerep SA (KinaseProfiler)
Experimental: as §1

MLK2(h) = target: T23, MLK2(h) (Homo sapiens, UniProt Q02779)
T23 construct: purchased Eurofins Cerep SA (KinaseProfiler)
Experimental: as §1

NDR2(h) = target: T24, NDR2(h) (Homo sapiens, UniProt Q9Y2H1)
T24 construct: purchased Eurofins Cerep SA (KinaseProfiler)
Experimental: as §1

NEK11(h) = target: T25, NEK11(h) (Homo sapiens, UniProt Q8NG66)
T25 construct: purchased Eurofins Cerep SA (KinaseProfiler)
Experimental: as §1

NLK(h) = target: T26, NLK(h) (Homo sapiens, UniProt Q9UBE8)
T26 construct: purchased Eurofins Cerep SA (KinaseProfiler)
Experimental: as §1

PAK4(h) = target: T27, PAK4(h) (Homo sapiens, UniProt O96013)
T27 construct: purchased Eurofins Cerep SA (KinaseProfiler)
Experimental: as §1

PDHK2(h) = target: T28, PDHK2(h) (Homo sapiens, UniProt Q15119)
T28 construct: purchased Eurofins Cerep SA (KinaseProfiler)
Experimental: as §1

PKAcβ(h) = target: T29, PKAcβ(h) (Homo sapiens, UniProt P22694)
T29 construct: purchased Eurofins Cerep SA (KinaseProfiler)
Experimental: as §1

Rsk2(h) = target: T30, Rsk2(h) (Homo sapiens, UniProt P51812)
T30 construct: purchased Eurofins Cerep SA (KinaseProfiler)
Experimental: as §1

Rsk3(h) = target: T31, Rsk3(h) (Homo sapiens, UniProt Q15349)
T31 construct: purchased Eurofins Cerep SA (KinaseProfiler)
Experimental: as §1

SBK1(h) = target: T32, SBK1(h) (Homo sapiens, UniProt Q52WX2)
T32 construct: purchased Eurofins Cerep SA (KinaseProfiler)
Experimental: as §1

STK32B(h) = target: T33, STK32B(h) (Homo sapiens, UniProt Q9NY57)
T33 construct: purchased Eurofins Cerep SA (KinaseProfiler)
Experimental: as §1

Snk(h) = target: T34, Snk(h) (Homo sapiens, UniProt Q9NYY3)
T34 construct: purchased Eurofins Cerep SA (KinaseProfiler)
Experimental: as §1

TNIK(h) = target: T35, TNIK(h) (Homo sapiens, UniProt Q9UKE5)
T35 construct: purchased Eurofins Cerep SA (KinaseProfiler)
Experimental: as §1

TrkB(h) = target: T36, TrkB(h) (Homo sapiens, UniProt Q16620)
T36 construct: purchased Eurofins Cerep SA (KinaseProfiler)
Experimental: as §1

VRK2(h) = target: T37, VRK2(h) (Homo sapiens, UniProt Q86Y07)
T37 construct: purchased Eurofins Cerep SA (KinaseProfiler)
Experimental: as §1

Wee1(h) = target: T38, Wee1(h) (Homo sapiens, UniProt P30291)
T38 construct: purchased Eurofins Cerep SA (KinaseProfiler)
Experimental: as §1

ZIPK(h) = target: T39, ZIPK(h) (Homo sapiens, UniProt O43293)
T39 construct: purchased Eurofins Cerep SA (KinaseProfiler)
Experimental: as §1

mTOR/FKBP12(h) = target: T40, mTOR/FKBP12(h) (Homo sapiens, UniProt P42345)
T40 construct: purchased Eurofins Cerep SA (KinaseProfiler)
Experimental: as §1

p70S6K(h) = target: T41, p70S6K(h) (Homo sapiens, UniProt P23443)
T41 construct: purchased Eurofins Cerep SA (KinaseProfiler)
Experimental: as §1

T5 sequence (P49761 whole entry): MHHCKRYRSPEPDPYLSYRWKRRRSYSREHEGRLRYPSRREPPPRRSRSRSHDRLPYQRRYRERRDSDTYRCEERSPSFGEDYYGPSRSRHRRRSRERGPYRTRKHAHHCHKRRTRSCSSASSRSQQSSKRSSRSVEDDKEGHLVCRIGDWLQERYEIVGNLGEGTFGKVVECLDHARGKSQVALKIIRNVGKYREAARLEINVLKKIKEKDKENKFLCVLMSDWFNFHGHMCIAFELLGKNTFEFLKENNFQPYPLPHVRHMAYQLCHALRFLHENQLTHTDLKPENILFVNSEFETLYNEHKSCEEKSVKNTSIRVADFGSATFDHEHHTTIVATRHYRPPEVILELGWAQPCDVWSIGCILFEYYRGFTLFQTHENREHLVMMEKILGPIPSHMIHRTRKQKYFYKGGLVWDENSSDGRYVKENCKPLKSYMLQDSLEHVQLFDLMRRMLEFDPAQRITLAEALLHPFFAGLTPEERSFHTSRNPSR
T19 sequence (P06239 whole entry): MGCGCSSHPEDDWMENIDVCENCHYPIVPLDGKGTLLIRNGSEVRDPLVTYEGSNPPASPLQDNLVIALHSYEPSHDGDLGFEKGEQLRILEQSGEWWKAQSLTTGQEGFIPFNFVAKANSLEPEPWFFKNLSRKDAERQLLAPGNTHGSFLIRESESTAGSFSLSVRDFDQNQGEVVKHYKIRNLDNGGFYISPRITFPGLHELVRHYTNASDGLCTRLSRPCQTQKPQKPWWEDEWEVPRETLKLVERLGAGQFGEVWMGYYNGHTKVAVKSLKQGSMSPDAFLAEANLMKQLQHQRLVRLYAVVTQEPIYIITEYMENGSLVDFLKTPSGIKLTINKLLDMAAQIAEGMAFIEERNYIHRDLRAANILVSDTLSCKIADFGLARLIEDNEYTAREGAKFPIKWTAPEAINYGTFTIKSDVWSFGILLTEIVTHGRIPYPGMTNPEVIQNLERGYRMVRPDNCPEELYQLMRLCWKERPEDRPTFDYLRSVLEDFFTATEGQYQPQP
T8 sequence (Q9C098 whole entry): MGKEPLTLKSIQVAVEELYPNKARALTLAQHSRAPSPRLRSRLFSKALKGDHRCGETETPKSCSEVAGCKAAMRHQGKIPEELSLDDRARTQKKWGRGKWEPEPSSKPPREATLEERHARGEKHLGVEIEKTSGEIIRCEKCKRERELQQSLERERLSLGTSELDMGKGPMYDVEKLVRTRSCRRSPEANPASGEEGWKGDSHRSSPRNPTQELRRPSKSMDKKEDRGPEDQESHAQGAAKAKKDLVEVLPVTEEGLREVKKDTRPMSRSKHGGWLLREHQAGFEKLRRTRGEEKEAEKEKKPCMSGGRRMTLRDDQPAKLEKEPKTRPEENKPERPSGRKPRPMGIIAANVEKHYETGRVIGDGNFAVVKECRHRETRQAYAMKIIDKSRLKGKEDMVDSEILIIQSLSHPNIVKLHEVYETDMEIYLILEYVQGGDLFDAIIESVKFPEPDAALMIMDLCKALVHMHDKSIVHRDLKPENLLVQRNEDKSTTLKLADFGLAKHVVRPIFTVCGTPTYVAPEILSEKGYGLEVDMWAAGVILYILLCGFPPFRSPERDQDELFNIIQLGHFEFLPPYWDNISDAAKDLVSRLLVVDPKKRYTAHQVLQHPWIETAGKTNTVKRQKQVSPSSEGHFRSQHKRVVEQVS
T34 sequence (Q9NYY3 whole entry): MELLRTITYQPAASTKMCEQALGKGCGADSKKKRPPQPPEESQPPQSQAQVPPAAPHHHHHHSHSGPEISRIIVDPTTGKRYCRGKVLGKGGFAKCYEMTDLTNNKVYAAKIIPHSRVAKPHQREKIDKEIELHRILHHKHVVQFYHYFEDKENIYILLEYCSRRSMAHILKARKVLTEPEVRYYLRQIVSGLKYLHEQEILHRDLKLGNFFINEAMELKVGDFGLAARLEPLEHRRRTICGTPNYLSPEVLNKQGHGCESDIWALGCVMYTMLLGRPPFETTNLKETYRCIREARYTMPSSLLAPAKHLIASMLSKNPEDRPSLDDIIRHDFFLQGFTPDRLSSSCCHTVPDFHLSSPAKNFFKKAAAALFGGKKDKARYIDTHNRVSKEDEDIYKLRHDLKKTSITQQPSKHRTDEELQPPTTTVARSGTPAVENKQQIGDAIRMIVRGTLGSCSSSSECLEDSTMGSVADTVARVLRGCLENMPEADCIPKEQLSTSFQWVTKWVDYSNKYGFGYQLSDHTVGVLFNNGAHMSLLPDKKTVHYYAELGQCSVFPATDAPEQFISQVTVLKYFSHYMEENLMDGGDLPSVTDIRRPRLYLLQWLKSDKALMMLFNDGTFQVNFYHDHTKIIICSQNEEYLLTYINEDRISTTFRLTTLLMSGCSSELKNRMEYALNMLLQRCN
T33 sequence (Q9NY57 whole entry): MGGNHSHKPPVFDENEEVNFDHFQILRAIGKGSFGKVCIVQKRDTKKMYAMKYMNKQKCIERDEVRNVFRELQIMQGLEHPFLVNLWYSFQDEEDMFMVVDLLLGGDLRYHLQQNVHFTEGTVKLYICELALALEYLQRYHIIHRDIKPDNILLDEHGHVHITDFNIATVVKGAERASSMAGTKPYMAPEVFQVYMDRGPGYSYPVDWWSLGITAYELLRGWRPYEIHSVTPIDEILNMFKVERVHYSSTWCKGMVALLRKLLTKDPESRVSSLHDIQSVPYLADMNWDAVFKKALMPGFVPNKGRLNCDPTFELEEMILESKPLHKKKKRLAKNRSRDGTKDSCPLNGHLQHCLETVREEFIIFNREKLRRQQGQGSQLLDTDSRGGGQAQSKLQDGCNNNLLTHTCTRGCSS
T10 sequence (Q15375 28-998): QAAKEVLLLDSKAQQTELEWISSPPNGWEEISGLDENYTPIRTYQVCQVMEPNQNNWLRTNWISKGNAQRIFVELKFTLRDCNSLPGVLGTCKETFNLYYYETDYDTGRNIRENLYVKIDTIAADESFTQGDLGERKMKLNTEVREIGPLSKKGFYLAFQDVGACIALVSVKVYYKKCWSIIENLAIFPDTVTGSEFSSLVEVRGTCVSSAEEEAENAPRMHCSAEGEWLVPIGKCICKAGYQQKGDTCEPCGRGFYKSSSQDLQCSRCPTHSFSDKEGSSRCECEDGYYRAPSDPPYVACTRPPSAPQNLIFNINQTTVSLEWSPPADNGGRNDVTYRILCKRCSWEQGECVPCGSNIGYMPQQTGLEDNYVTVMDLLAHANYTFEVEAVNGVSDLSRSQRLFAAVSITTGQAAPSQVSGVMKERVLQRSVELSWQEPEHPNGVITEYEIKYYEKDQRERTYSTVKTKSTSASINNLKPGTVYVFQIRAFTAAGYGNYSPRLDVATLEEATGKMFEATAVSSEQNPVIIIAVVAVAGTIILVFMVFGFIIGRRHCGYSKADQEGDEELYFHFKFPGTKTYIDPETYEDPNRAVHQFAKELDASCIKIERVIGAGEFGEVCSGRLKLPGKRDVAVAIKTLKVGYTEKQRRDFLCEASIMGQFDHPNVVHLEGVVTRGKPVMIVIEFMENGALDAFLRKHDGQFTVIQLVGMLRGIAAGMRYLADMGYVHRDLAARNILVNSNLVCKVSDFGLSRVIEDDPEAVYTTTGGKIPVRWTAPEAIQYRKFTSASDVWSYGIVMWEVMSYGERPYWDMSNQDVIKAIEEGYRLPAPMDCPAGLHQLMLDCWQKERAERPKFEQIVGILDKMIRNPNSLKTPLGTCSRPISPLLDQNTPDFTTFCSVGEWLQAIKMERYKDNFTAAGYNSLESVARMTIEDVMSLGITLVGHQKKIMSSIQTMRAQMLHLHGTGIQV
T9 sequence (Q9UEE5 whole entry): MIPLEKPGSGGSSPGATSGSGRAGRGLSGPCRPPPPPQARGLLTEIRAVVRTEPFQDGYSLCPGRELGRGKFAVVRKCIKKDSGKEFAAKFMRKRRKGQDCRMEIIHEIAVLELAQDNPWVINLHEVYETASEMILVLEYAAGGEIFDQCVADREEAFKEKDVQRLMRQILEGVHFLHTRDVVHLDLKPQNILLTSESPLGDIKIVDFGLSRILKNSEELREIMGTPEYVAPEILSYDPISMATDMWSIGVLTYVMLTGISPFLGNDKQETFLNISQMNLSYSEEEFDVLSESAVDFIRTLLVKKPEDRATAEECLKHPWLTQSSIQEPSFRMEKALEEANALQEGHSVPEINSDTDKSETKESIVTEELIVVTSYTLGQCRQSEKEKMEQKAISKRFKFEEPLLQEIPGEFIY
T6 sequence (Q9HAZ1 whole entry): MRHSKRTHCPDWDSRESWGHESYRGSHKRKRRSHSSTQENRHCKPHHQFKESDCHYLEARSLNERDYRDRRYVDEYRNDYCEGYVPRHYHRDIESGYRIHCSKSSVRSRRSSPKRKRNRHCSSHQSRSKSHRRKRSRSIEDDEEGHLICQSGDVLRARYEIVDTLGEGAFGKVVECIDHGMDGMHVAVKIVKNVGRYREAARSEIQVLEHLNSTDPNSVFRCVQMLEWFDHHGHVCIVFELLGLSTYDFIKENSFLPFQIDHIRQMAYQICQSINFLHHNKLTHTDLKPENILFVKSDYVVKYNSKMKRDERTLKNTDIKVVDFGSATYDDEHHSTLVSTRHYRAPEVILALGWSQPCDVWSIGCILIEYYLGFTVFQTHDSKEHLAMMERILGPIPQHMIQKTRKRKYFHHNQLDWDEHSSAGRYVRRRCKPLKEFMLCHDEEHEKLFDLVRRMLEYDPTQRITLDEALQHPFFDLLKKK
T20 sequence (P28482 whole entry): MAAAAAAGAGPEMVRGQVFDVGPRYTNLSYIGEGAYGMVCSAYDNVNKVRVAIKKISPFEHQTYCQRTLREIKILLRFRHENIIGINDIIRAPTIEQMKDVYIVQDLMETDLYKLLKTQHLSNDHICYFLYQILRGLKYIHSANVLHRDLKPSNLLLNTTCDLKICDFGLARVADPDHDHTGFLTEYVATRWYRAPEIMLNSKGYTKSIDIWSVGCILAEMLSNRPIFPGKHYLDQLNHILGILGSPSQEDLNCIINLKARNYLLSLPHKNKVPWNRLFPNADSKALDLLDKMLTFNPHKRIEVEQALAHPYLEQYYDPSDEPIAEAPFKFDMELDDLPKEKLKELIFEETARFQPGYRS

**Q.** Which inhibition at 1 µM (Arg(h)) does the source give for CN(C)Cc1cccc(Nc2ncc(Cl)c(-c3csc(C(=O)NN4CCOCC4)c3)n2)c1 [SKLB-D18, 4-(5-chloro-2-((3-((dimethylamino)methyl)phenyl)amino)pyrimidin-4-yl)-N-morpholinothiophene-2-carboxamide] here?
**A.** Its inhibition at 1 µM is 43%.

**Q.** And the inhibition at 1 µM (Blk(h))?
**A.** The inhibition at 1 µM was -5%.

**Q.** And the inhibition at 1 µM (BrSK1(h))?
**A.** Its inhibition at 1 µM is 2%.

**Q.** And the inhibition at 1 µM (CK2(h))?
**A.** The inhibition at 1 µM was 68%.

**Q.** And the inhibition at 1 µM (CLK3(h))?
**A.** Its inhibition at 1 µM is 11%.

**Q.** What about the inhibition at 1 µM (CLK4(h)) of the same compound?
**A.** Its inhibition at 1 µM is 68%.

**Q.** And the inhibition at 1 µM (CaMKI(h))?
**A.** Its inhibition at 1 µM is 16%.

**Q.** And the inhibition at 1 µM (DCAMKL3(h))?
**A.** Its inhibition at 1 µM is 66%.

**Q.** And the inhibition at 1 µM (DRAK1(h))?
**A.** Its inhibition at 1 µM is 44%.

**Q.** And the inhibition at 1 µM (EphA7(h))?
**A.** Its inhibition at 1 µM is 38%.

**Q.** What about the inhibition at 1 µM (FGFR3(h)) of the same compound?
**A.** The inhibition at 1 µM was 55%.

**Q.** And the inhibition at 1 µM (GSK3α(h))?
**A.** The inhibition at 1 µM was 58%.

**Q.** And the inhibition at 1 µM (HIPK1(h))?
**A.** Its inhibition at 1 µM is 68%.

**Q.** What about the inhibition at 1 µM (Haspin(h)) of the same compound?
**A.** Its inhibition at 1 µM is 12%.

**Q.** And the inhibition at 1 µM (IKKβ(h))?
**A.** The inhibition at 1 µM was 53%.

**Q.** What about the inhibition at 1 µM (IRAK1(h)) of the same compound?
**A.** Its inhibition at 1 µM is 60%.

**Q.** And the inhibition at 1 µM (KDR(h))?
**A.** The inhibition at 1 µM was 66%.

**Q.** What about the inhibition at 1 µM (LOK(h)) of the same compound?
**A.** The inhibition at 1 µM was 2%.

**Q.** What about the inhibition at 1 µM (Lck(h)) of the same compound?
**A.** Its inhibition at 1 µM is 63%.

**Q.** What about the inhibition at 1 µM (MAPK1(h)) of the same compound?
**A.** The inhibition at 1 µM was 94%.

**Q.** And the inhibition at 1 µM (MARK1(h))?
**A.** Its inhibition at 1 µM is 64%.

**Q.** And the inhibition at 1 µM (MEK1(h))?
**A.** The inhibition at 1 µM was 15%.

**Q.** What about the inhibition at 1 µM (MLK2(h)) of the same compound?
**A.** Its inhibition at 1 µM is 59%.

**Q.** And the inhibition at 1 µM (NDR2(h))?
**A.** Its inhibition at 1 µM is 27%.

**Q.** And the inhibition at 1 µM (NEK11(h))?
**A.** Its inhibition at 1 µM is -4%.

**Q.** What about the inhibition at 1 µM (NLK(h)) of the same compound?
**A.** Its inhibition at 1 µM is 26%.

**Q.** What about the inhibition at 1 µM (PAK4(h)) of the same compound?
**A.** Its inhibition at 1 µM is 21%.

**Q.** And the inhibition at 1 µM (PDHK2(h))?
**A.** Its inhibition at 1 µM is 14%.

**Q.** What about the inhibition at 1 µM (PKAcβ(h)) of the same compound?
**A.** Its inhibition at 1 µM is 12%.

**Q.** And the inhibition at 1 µM (Rsk2(h))?
**A.** The inhibition at 1 µM was 41%.

**Q.** And the inhibition at 1 µM (Rsk3(h))?
**A.** Its inhibition at 1 µM is 66%.

**Q.** And the inhibition at 1 µM (SBK1(h))?
**A.** The inhibition at 1 µM was 55%.

**Q.** And the inhibition at 1 µM (STK32B(h))?
**A.** Its inhibition at 1 µM is -3%.

**Q.** And the inhibition at 1 µM (Snk(h))?
**A.** Its inhibition at 1 µM is 28%.

**Q.** And the inhibition at 1 µM (TNIK(h))?
**A.** The inhibition at 1 µM was 48%.

**Q.** And the inhibition at 1 µM (TrkB(h))?
**A.** The inhibition at 1 µM was 46%.

**Q.** And the inhibition at 1 µM (VRK2(h))?
**A.** Its inhibition at 1 µM is -3%.

**Q.** What about the inhibition at 1 µM (Wee1(h)) of the same compound?
**A.** The inhibition at 1 µM was 48%.

**Q.** What about the inhibition at 1 µM (ZIPK(h)) of the same compound?
**A.** The inhibition at 1 µM was 64%.

**Q.** What about the inhibition at 1 µM (mTOR/FKBP12(h)) of the same compound?
**A.** The inhibition at 1 µM was 8%.

**Q.** What about the inhibition at 1 µM (p70S6K(h)) of the same compound?
**A.** Its inhibition at 1 µM is 57%.
